Source: EP2970215B1, “PYRROLIDINE DERIVATIVES, PHARMACEUTICAL COMPOSITIONS CONTAINING THEM, AND THEIR USE IN THERAPY” (AbbVie Deutschland GmbH & Co. KG, priority 2013, dated 2014)

Target: T1, human GlyT1c transporter (Homo sapiens, UniProt P48067)
T1 construct: expressed in transfected cells; host or cells: CHO cells (recombinant; line hGlyT1c_5_CHO is named for the uptake assay)
T1 sequence (P48067 1-706): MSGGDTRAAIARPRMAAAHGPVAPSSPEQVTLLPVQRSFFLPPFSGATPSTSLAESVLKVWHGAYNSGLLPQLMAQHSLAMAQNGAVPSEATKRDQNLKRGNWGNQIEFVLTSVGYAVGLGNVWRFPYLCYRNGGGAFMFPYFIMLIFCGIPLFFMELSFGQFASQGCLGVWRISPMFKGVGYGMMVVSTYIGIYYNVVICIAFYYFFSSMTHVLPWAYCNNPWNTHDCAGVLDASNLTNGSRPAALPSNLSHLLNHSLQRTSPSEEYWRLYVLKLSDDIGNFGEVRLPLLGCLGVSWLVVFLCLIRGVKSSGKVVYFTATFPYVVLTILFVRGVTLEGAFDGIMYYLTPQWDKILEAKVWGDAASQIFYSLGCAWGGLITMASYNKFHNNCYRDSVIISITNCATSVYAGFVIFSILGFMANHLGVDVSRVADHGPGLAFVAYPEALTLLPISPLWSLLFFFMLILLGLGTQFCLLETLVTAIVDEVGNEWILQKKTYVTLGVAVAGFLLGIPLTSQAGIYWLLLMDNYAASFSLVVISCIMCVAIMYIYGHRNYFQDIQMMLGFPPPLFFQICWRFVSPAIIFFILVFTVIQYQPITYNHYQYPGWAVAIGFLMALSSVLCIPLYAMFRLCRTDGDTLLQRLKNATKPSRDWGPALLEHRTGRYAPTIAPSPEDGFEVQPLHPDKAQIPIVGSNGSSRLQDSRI
Assay: Radioligand binding assay using recombinant CHO cell membranes expressing human GlyT1
Details: radioligand binding, recombinant CHO cell membranes expressing human GlyT1c
Source text: 2. Radioligand binding assays using recombinant CHO cell membranes expressing human GlyT1: […]

Row | Ki | Compound
1 | ≤ 100 nM | Cc1cc(N[C@@H]2CN(S(=O)(=O)c3cn(C)cn3)C[C@H]2C2CCCCO2)ccc1F (relative stereo) [Example 847, Trans-N-(4-fluoro-3-methylphenyl)-1-[(1-methyl-1H-imidazol-4-yl)sulfonyl]-4-(tetrahydro-2H-pyran-2-yl)pyrrolidin-3-amine]
2 | ≤ 1000 nM | Cn1cnc(S(=O)(=O)N2C[C@@H](Nc3cc(C(F)(F)F)c(Cl)cn3)[C@H](C3CCCCO3)C2)c1 (relative stereo) [Example 848, 5-Chloro-N-[trans-1-[(1-methyl-1H-imidazol-4-yl)sulfonyl]-4-(tetrahydro-2H-pyran-2-yl)pyrrolidin-3-yl]-4-(trifluoromethyl)pyridin-2-amine]
3 | ≤ 100 nM | Cn1cnc(S(=O)(=O)N2C[C@@H](Nc3cccc(Cl)c3)[C@H](C3CCCCO3)C2)c1 (relative stereo) [Example 849, Trans-N-(3-chlorophenyl)-1-[(1-methyl-1H-imidazol-4-yl)sulfonyl]-4-(tetrahydro-2H-pyran-2-yl)pyrrolidin-3-amine]
4 | ≤ 1000 nM | Cn1cnc(S(=O)(=O)N2C[C@@H](Nc3cccc(Cl)c3)[C@H](C3CCCO3)C2)c1 (relative stereo) [Example 850, Trans-N-(3-chlorophenyl)-1 - [(1-methyl-1H-imidazol-4-yl)sulfonyl] -4-(tetrahydrofuran-2-yl)pyrrolidin-3-amine]
5 | ≤ 10000 nM | Cc1cc(N[C@@H]2CN(S(=O)(=O)c3cn(C)cn3)C[C@H]2C2CCCO2)ncc1F (relative stereo) [Example 851, 5-Fluoro-4-methyl-N-[trans-1-[(1-methyl-1H-imidazol-4-yl)sulfonyl]-4-(tetrahydrofuran-2-yl)pyrrolidin-3-yl]pyridin-2-amine]
6 | ≤ 1000 nM | Cc1cc(N[C@@H]2CN(S(=O)(=O)c3cn(C)cn3)C[C@H]2C2CCCCO2)ncc1F (relative stereo) [Example 852, 5-Fluoro-4-methyl-N-[trans-1-[(1-methyl-1H-imidazol-4-yl)sulfonyl]-4-(tetrahydro-2H-pyran-2-yl)pyrrolidin-3-yl]pyridin-2-amine]

Further lines, the compound ahead of its results:

Row | Compound | Ki
7 | Cn1cc(S(=O)(=O)N2C[C@@H](Nc3cccc(OCC(F)(F)F)c3)[C@H](c3ccc(F)cc3)C2)nn1 (relative stereo) [Example 836, trans-4-(4-fluorophenyl)-1-[(1-methyl-1H-1,2,3-triazol-4-yl)sulfonyl]-N-[3-(2,2,2-trifluoroethoxy)phenyl]pyrrolidin-3-amine] | ≤ 10 nM
8 | Cn1cnc(S(=O)(=O)N2C[C@@H](Nc3ccc(F)c(C(F)(F)F)c3)[C@H](C3CCCO3)C2)c1 (relative stereo) [Example 843, Trans-N-[4-fluoro-3-(trifluoromethyl)phenyl]-1-[(1-methyl-1H-imidazol-4-yl)sulfonyl]-4-(tetrahydrofuran-2-yl)pyrrolidin-3-amine] | ≤ 100 nM
9 | Cn1cnc(S(=O)(=O)N2C[C@@H](Nc3cc(C(F)(F)F)c(Cl)cn3)[C@H](C3CCCO3)C2)c1 (relative stereo) [Example 844, 5-Chloro-N-[trans-1-[(1-methyl-1H-imidazol-4-yl)sulfonyl]-4-(tetrahydrofuran-2-yl)pyrrolidin-3-yl]-4-(trifluoromethyl)pyridin-2-amine] | ≤ 1000 nM
10 | Cc1cc(N[C@@H]2CN(S(=O)(=O)c3cn(C)cn3)C[C@H]2C2CCCO2)ccc1F (relative stereo) [Example 845, Trans-N-(4-fluoro-3-methylphenyl)-1-[(1-methyl-1H-imidazol-4-yl)sulfonyl]-4-(tetrahydrofuran-2-yl)pyrrolidin-3-amine] | ≤ 1000 nM
11 | Cn1cnc(S(=O)(=O)N2C[C@@H](Nc3ccc(F)c(C(F)(F)F)c3)[C@H](C3CCCCO3)C2)c1 (relative stereo) [Example 846, Trans-N-[4-fluoro-3-(trifluoromethyl)phenyl]-1-[(1-methyl-1H-imidazol-4-yl)sulfonyl]-4-(tetrahydro-2H-pyran-2-yl)pyrrolidin-3-amine] | ≤ 100 nM
